In PubChem BioAssay (NCI):
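Following 48 hours of exposure in 96-well plates, responses at five concentrations were used to interpolate endpoints linearly. TGI is the concentration that stops growth completely.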

What was measured:
Experiment in all cases: inhibition of tumour cell growth, NCI panel, 48 h
786-0 renal = system: 786-0 renal
OVCAR-5 ovarian = system: OVCAR-5 ovarian
SN12C renal = system: SN12C renal
RPMI-8226 leukemia = system: RPMI-8226 leukemia
NCI-H226 lung = system: NCI-H226 lung
TK-10 renal = system: TK-10 renal
NCI-H460 lung = system: NCI-H460 lung
A498 renal = system: A498 renal
SF-268 CNS = system: SF-268 CNS
HL-60(TB) leukemia = system: HL-60(TB) leukemia
OVCAR-3 ovarian = system: OVCAR-3 ovarian
UACC-257 melanoma = system: UACC-257 melanoma
OVCAR-8 ovarian = system: OVCAR-8 ovarian
OVCAR-4 ovarian = system: OVCAR-4 ovarian
SK-MEL-28 melanoma = system: SK-MEL-28 melanoma

Structure (SMILES)	TGI (786-0 renal)	TGI (OVCAR-5 ovarian)	TGI (SN12C renal)	TGI (RPMI-8226 leukemia)	TGI (NCI-H226 lung)	TGI (TK-10 renal)	TGI (NCI-H460 lung)	TGI (A498 renal)	TGI (SF-268 CNS)	TGI (HL-60(TB) leukemia)	TGI (OVCAR-3 ovarian)	TGI (UACC-257 melanoma)	TGI (OVCAR-8 ovarian)	TGI (OVCAR-4 ovarian)	TGI (SK-MEL-28 melanoma)
O=C1c2ccccc2C(=O)c2c1sc1nc3ccccc3n21	4.46 µM	4.28 µM	2.85 µM	5.26 µM	21.2 µM	12.7 µM	3.66 µM	23.3 µM	3.9 µM	> 100 µM	9.34 µM	3.64 µM	3.82 µM	–	–
Nc1nc(Cl)cc(NCC2(CO)CC=CC2)n1	> 100 µM	> 100 µM	> 100 µM	–	> 100 µM	> 100 µM	> 100 µM	–	> 100 µM	–	> 100 µM	> 100 µM	> 100 µM	> 100 µM	> 100 µM
CC(=O)NC(CCCCN(Cc1ccccc1)C(=O)N(C)N=O)C(=O)NCc1ccccc1 (stereo not drawn)	> 100 µM	> 100 µM	> 100 µM	> 100 µM	> 100 µM	> 100 µM	> 100 µM	> 100 µM	> 100 µM	–	> 100 µM	> 100 µM	> 100 µM	> 100 µM	> 100 µM
CC(O)/C=C/C1OC(=O)CC1Nc1ccc(C=O)cc1 (stereo not drawn)	> 100 µM	> 100 µM	> 100 µM	90.9 µM	> 100 µM	> 100 µM	> 100 µM	> 100 µM	> 100 µM	–	> 100 µM	> 100 µM	> 100 µM	> 100 µM	> 100 µM
COc1cc2c(cc1OC)C(Cc1cc(Br)c(OC)c(OC)c1)=[N+](C)CC2	> 100 µM	> 100 µM	> 100 µM	> 100 µM	> 100 µM	> 100 µM	> 100 µM	–	> 100 µM	> 100 µM	> 100 µM	> 100 µM	> 100 µM	> 100 µM	> 100 µM
CCOC(=O)/C=C(\C(=O)OCC)n1cc(C)c(=O)n(Cc2cn(COCCOC(C)=O)nn2)c1=O	> 100 µM	29.5 µM	63.3 µM	18.9 µM	–	15.9 µM	30.2 µM	–	31.3 µM	–	27.6 µM	33.7 µM	21.3 µM	48.7 µM	48.1 µM
CN(C)CCSC(=Nc1ccccc1)n1cccc1	> 100 µM	> 100 µM	> 100 µM	> 100 µM	75.7 µM	> 100 µM	> 100 µM	–	> 100 µM	> 100 µM	> 100 µM	> 100 µM	> 100 µM	> 100 µM	> 100 µM
O=C(c1nc2ccc(Cl)cc2[nH]c1=O)C(O)c1ccco1 (stereo not drawn)	> 100 µM	> 100 µM	–	–	> 100 µM	> 100 µM	> 100 µM	–	> 100 µM	> 100 µM	> 100 µM	> 100 µM	–	> 100 µM	> 100 µM
CC(C)C1COC(C(C)(C)C2=N[C@@H](C(C)C)CO2)=N1 (stereo partly drawn)	> 100 µM	> 100 µM	> 100 µM	> 100 µM	> 100 µM	> 100 µM	> 100 µM	–	> 100 µM	> 100 µM	> 100 µM	> 100 µM	> 100 µM	> 100 µM	> 100 µM
COC(OC)[C@@H]1OC[C@H](n2ccc(=O)[nH]c2=O)[C@H]1O	> 100 µM	> 100 µM	> 100 µM	> 100 µM	> 100 µM	> 100 µM	> 100 µM	> 100 µM	> 100 µM	–	> 100 µM	> 100 µM	–	> 100 µM	> 100 µM
CCOC(=O)c1nc2ccc(C(F)(F)F)cc2nc1NCc1ccc(F)cc1	> 100 µM	> 100 µM	> 100 µM	> 100 µM	> 100 µM	> 100 µM	75.4 µM	–	53.9 µM	> 100 µM	> 100 µM	> 100 µM	> 100 µM	90.9 µM	> 100 µM
N#CC(C#N)[C@@H]1CCC=C(Sc2ccccc2)[C@H]1Sc1ccccc1	5.64 µM	20.3 µM	12.5 µM	–	4.01 µM	4.59 µM	13.6 µM	26.9 µM	14.7 µM	18.7 µM	12.8 µM	6.48 µM	9.37 µM	17.2 µM	7.57 µM
Cc1ccc([N+](=O)[O-])cc1NC(=O)/C(CC(=O)c1sc(C(N)=S)nc1C)=N\N	> 100 µM	> 100 µM	–	> 100 µM	–	> 100 µM	> 100 µM	> 100 µM	> 100 µM	> 100 µM	80.7 µM	> 100 µM	> 100 µM	> 100 µM	> 100 µM
CC(=S)NC=C(C(N)=O)C(N)=O	> 100 µM	> 100 µM	> 100 µM	> 100 µM	> 100 µM	–	–	> 100 µM	> 100 µM	> 100 µM	> 100 µM	> 100 µM	> 100 µM	–	> 100 µM
CC1=C(c2ccccc2)CON(c2ccccc2)C1	> 100 µM	> 100 µM	> 100 µM	> 100 µM	> 100 µM	–	> 100 µM	–	> 100 µM	76.2 µM	> 100 µM	> 100 µM	> 100 µM	> 100 µM	86.2 µM
N#CCc1nc(-c2cc3ccc(O)cc3oc2=O)cs1	> 100 µM	> 100 µM	> 100 µM	81.2 µM	> 100 µM	> 100 µM	> 100 µM	–	> 100 µM	> 100 µM	–	> 100 µM	> 100 µM	> 100 µM	> 100 µM
OCCCN=C1N=C(Cl)/C(=C\c2ccccc2)N1	> 100 µM	> 100 µM	> 100 µM	> 100 µM	> 100 µM	> 100 µM	–	> 100 µM	> 100 µM	> 100 µM	–	> 100 µM	> 100 µM	> 100 µM	> 100 µM
